{"source": "patent US20090042912A1", "about": "“DIPHENYLIMIDAZOLYL COMPOUNDS AS INHIBITORS OF beta-SECRETASE” (Wyeth, priority 2004, published 2009)", "key": {"human BACE1": {"molecular_target": "human BACE1 (Homo sapiens, UniProt P56817)", "sequence (P56817 46-501)": "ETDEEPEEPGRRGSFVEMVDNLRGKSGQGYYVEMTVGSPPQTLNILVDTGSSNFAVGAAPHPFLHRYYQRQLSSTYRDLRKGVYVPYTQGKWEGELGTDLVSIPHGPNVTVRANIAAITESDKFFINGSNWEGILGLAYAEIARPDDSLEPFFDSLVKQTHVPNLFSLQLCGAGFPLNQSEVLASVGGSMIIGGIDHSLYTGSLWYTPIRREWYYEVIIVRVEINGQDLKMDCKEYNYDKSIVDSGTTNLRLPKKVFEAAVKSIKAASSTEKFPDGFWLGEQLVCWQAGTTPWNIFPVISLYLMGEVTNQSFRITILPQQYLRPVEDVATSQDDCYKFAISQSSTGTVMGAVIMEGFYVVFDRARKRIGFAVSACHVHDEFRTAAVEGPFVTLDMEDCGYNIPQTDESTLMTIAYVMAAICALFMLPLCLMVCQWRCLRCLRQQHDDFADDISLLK", "assay": "Fluorescent kinetic assay, inhibition of BACE1 (WABC-6 peptide substrate)", "type": "biochemical", "settings": "10 nM enzyme, 25 μM substrate, pH 4.5, room temperature; read-out: IC50 (μM) BACE1.", "method": "Evaluation of the Enzyme Activity of Test Compounds and the Inhibition of hBACE1, MuBACE1 and hBACE2 by Test Compounds\nThe concentration is determined by absorbance at 354 nm using an extinction coefficient ε of 18172 M^−1cm^−1, The substrate stock is stored in small aliquots at −80° C. [Substrate Stock]=ABS^354 nm*10^6/18172 ([…])\nDilution and mixing steps: total reaction volume: 100 μL • 1. 2× inhibitor dilutions in buffer A (66.7 mM Na-Acetate, pH 4.5, 0.0667% CHAPS) are prepared, • 2. 4× enzyme dilution in buffer A (66.7 mM Na-Acetate, pH 4.5, 0.0667% CHAPS) are prepared, • 3. 100 μM substrate dilution in 1× PBS is prepared, • 4. 50 μL 2× Inhibitor and 25 μL 100 μM substrate are added to each well of 96-well plate (from DYNEX Technologies, VWR #: 11311-046), the immediately 25 μL 4× enzyme are added to the inhibitor and substrate mixer, the fluorescence readings are initiated.\nReadings at λex 320 nm and λem 420 nm are taken every 40-sec for 30 min at room temperature to determine the linear slope for substrate cleavage rate (vi)."}, "human BACE2": {"molecular_target": "T1, human BACE2 (Homo sapiens, UniProt Q9Y5Z0)", "T1 sequence (Q9Y5Z0 63-518)": "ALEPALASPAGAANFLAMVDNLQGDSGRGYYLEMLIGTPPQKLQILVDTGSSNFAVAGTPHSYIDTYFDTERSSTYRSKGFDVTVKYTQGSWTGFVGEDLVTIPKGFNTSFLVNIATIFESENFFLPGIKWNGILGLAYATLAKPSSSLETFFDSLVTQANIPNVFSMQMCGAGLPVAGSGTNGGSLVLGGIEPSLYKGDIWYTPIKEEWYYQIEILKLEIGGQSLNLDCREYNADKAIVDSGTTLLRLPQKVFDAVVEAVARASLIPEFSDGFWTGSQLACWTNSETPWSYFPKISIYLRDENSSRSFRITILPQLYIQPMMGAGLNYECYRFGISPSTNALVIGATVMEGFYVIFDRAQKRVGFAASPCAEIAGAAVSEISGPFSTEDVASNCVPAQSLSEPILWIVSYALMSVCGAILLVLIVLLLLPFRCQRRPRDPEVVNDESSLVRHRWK", "assay": "Fluorescent kinetic assay for human recombinant BACE 2 (WABC-6 peptide substrate)", "type": "biochemical", "settings": "for IC50: 1.5 nM enzyme, 25 μM substrate, pH 4.5, room temperature; for inhibition at 25 µM: read-out: BACE2. % inhibition", "method": "Fluorescent Kinetic Assay for Human Recombinant BACE 2\nThis assay is used to provide kinetic and selectivity parameters for the analyses of the tested compounds.\nTemperature: room temperature.\nDilution and Mixing Steps: Total Reaction Volume.: 100 μL • 1.\nReadings at λex 320 nm, λem 420 nm are taken every 40-sec for 30 min at room temperature and to determine the linear slope for substrate cleavage rate (vi)."}}, "data": [{"smiles": "NC1=NC(c2ccc(OC(F)(F)F)cc2)(c2cccc(-c3cncc(Cl)c3)c2)C2=NCCCN12", "note": "(stereo not drawn) [Example 20, 8-[3-(5-chloropyridin-3-yl)phenyl]-8-[4-(trifluoromethoxy)phenyl]-2,3,4,8-tetrahydroimidazo[1,5-a]pyrimidin-6-amine]", "values": [{"measurement": "IC50", "setting": "human BACE1", "result": 0.04, "unit": "µM"}, {"measurement": "IC50", "setting": "human BACE2", "result": 0.54, "unit": "µM"}, {"measurement": "melting point", "result": "112 to 116", "unit": "°C"}]}, {"smiles": "COc1ccc(C2(c3cccc(-c4cccnc4F)c3)N=C(N)N3CCCN=C32)cc1", "note": "(stereo not drawn) [Example 21, 8-[3-(2-fluoropyridin-3-yl)phenyl]-8-(4-methoxyphenyl]-2,3,4,8-tetrahydroimidazo[1,5-a]pyrimidin-6-amine]", "values": [{"measurement": "IC50", "setting": "human BACE1", "result": 0.09, "unit": "µM"}, {"measurement": "IC50", "setting": "human BACE2", "result": 6.57, "unit": "µM"}, {"measurement": "melting point", "result": "117 to 121", "unit": "°C"}]}, {"smiles": "COc1ccc(C2(c3ccc(F)c(-c4cncnc4)c3)N=C(N)N3CCCN=C32)cc1", "note": "(stereo not drawn) [Example 23, 8-(4-fluoro-3-pyrimidin-5-ylphenyl)-8-(4-methoxyphenyl)-2,3,4,8-tetrahydroimidazo[1,5-a]pyrimidin-6-amine]", "values": [{"measurement": "IC50", "setting": "human BACE1", "result": 0.12, "unit": "µM"}, {"measurement": "inhibition at 25 µM", "setting": "human BACE2", "result": 42, "unit": "%"}, {"measurement": "melting point", "result": 122, "unit": "°C"}]}, {"smiles": "COc1ccc(C2(c3ccc(F)c(-c4cccnc4F)c3)N=C(N)N3CCCN=C32)cc1", "note": "(stereo not drawn) [Example 24, 8-[4-fluoro-3-(2-fluoropyridin-3-yl)phenyl]-8-(4-methoxyphenyl)-2,3,4,8-tetrahydroimidazo[1,5-a]pyrimidin-6-amine]", "values": [{"measurement": "IC50", "setting": "human BACE1", "result": 0.06, "unit": "µM"}, {"measurement": "IC50", "setting": "human BACE2", "result": 8.18, "unit": "µM"}, {"measurement": "melting point", "result": 115, "unit": "°C"}]}, {"smiles": "CCOc1ccc(C2(c3cccc(-c4cccnc4F)c3)N=C(N)N3CCCN=C32)cc1OCC", "note": "(stereo not drawn) [Example 25]", "values": [{"measurement": "IC50", "setting": "human BACE1", "result": 0.083, "unit": "µM"}, {"measurement": "IC50", "setting": "human BACE2", "result": 9.87, "unit": "µM"}, {"measurement": "melting point", "result": "202 to 208", "unit": "°C"}]}, {"smiles": "NC1=NC(c2ccc(OC(F)(F)F)cc2)(c2cccc(-c3cc(F)cnc3F)c2)C2=NCCCN12", "note": "(stereo not drawn) [Example 28]", "values": [{"measurement": "IC50", "setting": "human BACE1", "result": 0.06, "unit": "µM"}, {"measurement": "IC50", "setting": "human BACE2", "result": 4.68, "unit": "µM"}, {"measurement": "melting point", "result": "94 to 102", "unit": "°C"}]}, {"smiles": "COCOc1ccc(C2(c3cccc(-c4cccnc4F)c3)N=C(N)N3CCCN=C32)cc1", "note": "(stereo not drawn) [Example 38, 8-[3-(2-Fluoro-pyridin-3-yl)-phenyl]-8-(4-methoxymethoxy-phenyl)-2,3,4,8-tetrahydro-imidazo[1,5-a]pyrimidin-6-ylamine]", "values": [{"measurement": "IC50", "setting": "human BACE1", "result": 0.093, "unit": "µM"}, {"measurement": "inhibition at 15.5 µM", "setting": "human BACE2; at 15.5 μM", "result": 47, "unit": "%"}, {"measurement": "melting point", "result": "95 to 105", "unit": "°C"}]}, {"smiles": "NC1=NC(c2ccc(OC(F)F)cc2)(c2cccc(-c3cccnc3F)c2)C2=NCCCN12", "note": "(stereo not drawn) [Example 41, 8-(4-Difluoromethoxyphenyl)-8-[3-(2-fluoropyridin-3-yl)phenyl]-2,3,4,8-tetrahydroimidazo[1,5-a]pyrimidin-6-ylamine]", "values": [{"measurement": "IC50", "setting": "human BACE1", "result": 0.018, "unit": "µM"}, {"measurement": "IC50", "setting": "human BACE2", "result": 1.23, "unit": "µM"}, {"measurement": "melting point", "result": "104 to 114", "unit": "°C"}]}, {"smiles": "NC1=NC(c2cccc(-c3cccnc3F)c2)(c2ccc3c(c2)OC(F)(F)O3)C2=NCCCN12", "note": "(stereo not drawn) [Example 43, 8-(2,2-Difluoro-benzo[1,3]dioxol-5-yl)-8-[3-(2-fluoro-pyridin-3-yl)-phenyl]-2,3,4,8-tetrahydro-imidazo[1,5-a]pyrimidin-6-ylamine]", "values": [{"measurement": "IC50", "setting": "human BACE1", "result": 0.74, "unit": "µM"}, {"measurement": "inhibition at 25 µM", "setting": "human BACE2", "result": 53, "unit": "%"}, {"measurement": "melting point", "result": "95 to 99", "unit": "°C"}]}, {"smiles": "NC1=NC(c2ccc(OC(F)F)cc2)(c2cccc(-c3cccnc3F)c2)C2=NCC3(CC3)CN12", "note": "(stereo not drawn) [Example 44, 8′-[4-(Difluoromethoxy)phenyl]-8′-[3-(2-fluoropyridin-3-yl)phenyl]-2′,8′-dihydrospiro[cyclopropane-1,3′-imidazo[1,5-a]pyrimidin]-6′-amine]", "values": [{"measurement": "IC50", "setting": "human BACE1", "result": 0.02, "unit": "µM"}, {"measurement": "IC50", "setting": "human BACE2", "result": 2.26, "unit": "µM"}, {"measurement": "melting point", "result": "98 to 108", "unit": "°C"}]}, {"smiles": "NC1=NC(c2ccc(OC(F)F)cc2)(c2cccc(-c3cccnc3F)c2)C2=NCC3(COC3)CN12", "note": "(stereo not drawn) [Example 46, 8-[4-(Difluoromethoxy)phenyl]-8-[3-(2-fluoropyridin-3-yl)phenyl]-2,8-dihydrospiro[imidazo[1,5-a]pyrimidine-3,3′-oxetan]-6-amine]", "values": [{"measurement": "IC50", "setting": "human BACE1", "result": 0.01, "unit": "µM"}, {"measurement": "IC50", "setting": "human BACE2", "result": 0.55, "unit": "µM"}, {"measurement": "melting point", "result": "96 to 107", "unit": "°C"}]}, {"smiles": "NC1=NC(c2ccc(OC(F)F)cc2)(c2cccc(-c3cccnc3F)c2)C2=NCC3(CCC3)CN12", "note": "(stereo not drawn) [Example 47, 8′-[4-(difluoromethoxy)phenyl]-8′-[3-(2-fluoropyridin-3-yl)phenyl]-2′,8′-dihydrospiro[cyclobutane-1,3′-imidazo[1,5-a]pyrimidin]-6′-amine]", "values": [{"measurement": "IC50", "setting": "human BACE1", "result": 0.01, "unit": "µM"}, {"measurement": "IC50", "setting": "human BACE2", "result": 1.15, "unit": "µM"}, {"measurement": "melting point", "result": "220 to 226", "unit": "°C"}]}]}
